Converted amounts (≈) assume the structure as drawn. Like-named read-outs stand apart in the source and are kept apart here.
Assays:
[1] = biological target: SRC (GST-HIS-tag) (Homo sapiens (Human), UniProt P12931); assay type: biochemical
[2] = in vivo; settings: CD1, mouse, plasma, oral, 30 mg/kg; read-out: Free concentration (nM) at timepoint after 30 mg/kg po
[3] = tested on: MC38 cells; assay: cells; settings: Mus musculus, MC-38, 72 h, read-out: MC38 IC50 (nM at 100 ng/mL TNF)
[4] = biological target: T1, SIK3 (Homo sapiens (Human), UniProt Q9Y2K2); assay: biochemical
[5] = physchem; assay type: physicochemical
[6] = human, microsomes
[7] = mouse, microsomes
[8] = tested on: human plasma-proteins
[9] = tested on: murine plasma-proteins
[10] = tested on: M579-A2-luc; assay type: cell-based
[11] = in vivo; settings: male, CD1, mouse, plasma
[12] = in vitro; settings: dog, MDCK
[13] = tested on: MDR1; assay: in vitro; settings: dog, MDCK-MDR1
[14] = biological target: T1, SIK3
[15] = biological target: ABL1 wt (Homo sapiens (Human), UniProt P00519); assay type: biochemical
ABL1 wt, sequence (P00519 118-535 limits assumed): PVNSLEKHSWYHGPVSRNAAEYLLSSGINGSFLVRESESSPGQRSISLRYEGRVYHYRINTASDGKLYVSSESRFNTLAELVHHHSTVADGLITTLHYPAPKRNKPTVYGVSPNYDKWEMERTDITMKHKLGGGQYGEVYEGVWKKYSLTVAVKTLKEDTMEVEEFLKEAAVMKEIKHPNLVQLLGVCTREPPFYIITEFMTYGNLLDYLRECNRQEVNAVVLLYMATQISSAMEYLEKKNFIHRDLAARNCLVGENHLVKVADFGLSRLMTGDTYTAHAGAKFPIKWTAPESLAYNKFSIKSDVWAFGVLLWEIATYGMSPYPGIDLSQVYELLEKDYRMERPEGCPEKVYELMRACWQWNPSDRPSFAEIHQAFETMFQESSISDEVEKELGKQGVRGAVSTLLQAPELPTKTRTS

[16] = biological target: SIK1 (Homo sapiens (Human), UniProt P57059); assay type: biochemical
[17] = biological target: SIK2 (Homo sapiens (Human), UniProt Q9H0K1); assay type: biochemical
[18] = in vitro; settings: human, microsomes
[19] = in vitro; settings: mouse, microsomes
[20] = humans; prescribing information; cited from earlier work
[21] = tested on: NFKB activity; settings: PANC-1 reporter cells, 10 ng/ml rHuTNF
[22] = tested on: HDAC4 phosphorylation; settings: PANC-1 cells, 10 ng/mL rHuTNF, 3 h

Cc1nc(Nc2ncc(C(=O)Nc3c(C)ccnc3C)s2)cc(N2CCN(CCO)CC2)n1 [Compound C1, N-(2,4-dimethylpyridin-3-yl)-2-((6-(4-(2-hydroxyethyl)piperazin-1-yl)-2-methylpyrimidin-4-yl)amino)thiazole-5-carboxamide]
IC50 [1]: < 1.5 nM

Cc1nc(NCCO)cc(Nc2ncc(C(=O)Nc3c(Cl)ccnc3C)s2)n1 [Compound C11, N-(4-chloro-2-methylpyridin-3-yl)-2-((6-((2-hydroxyethyl)amino)-2-methylpyrimidin-4-yl)amino)thiazole-5-carboxamide]
IC50 [1]: < 1.5 nM

Cc1nc(Nc2ncc(C(=O)Nc3c(Cl)csc3Cl)s2)cc(N2CCN(CCO)CC2)n1 [Compound D7, N-(2,4-dichlorothiophen-3-yl)-2-((6-(4-(2-hydroxyethyl)piperazin-1-yl)-2-methylpyrimidin-4-yl)amino)thiazole-5-carboxamide]
concentration at 2 h [2]: 43 nM
concentration at 6 h [2]: 5 nM
concentration at 12 h [2]: 1.1 nM
IC50 [3]: < 200 nM
IC50 [4]: 15 to 20 nM

Cc1nc(Nc2ncc(C(=O)Nc3c(C)nn(C)c3C)s2)cc(N2CCN(CCO)CC2)n1 [Compound C8, 2-((6-(4-(2-hydroxyethyl)piperazin-1-yl)-2-methylpyrimidin-4-yl)amino)-N-(1,3,5-trimethyl-1H-pyrazol-4-yl)thiazole-5-carboxamide]
solubility kinetic ([5]; kinetic from dmso stock): 128 to 195 µM (≈ 60.4 to 92 µg/mL)
Intrinsic clearance (L/min/mg) [6]: < 14 µL/min/mg
% Remaining at 40 min (%) [6]: 81%
Intrinsic clearance (L/min/mg) [7]: < 14 µL/min/mg
% Remaining at 40 min (%) [7]: 86%
Percentage unbound (%) [8]: 5%
Percentage unbound (%) [9]: 62%

Cc1nc(Nc2ncc(C(=O)Nc3c(Cl)cccc3Br)s2)cc(N2CCN(CCO)CC2)n1 [Compound B1, N-(2-bromo-6-chlorophenyl)-2-((6-(4-(2-hydroxyethyl)piperazin-l-yl)-2-methylpyrimidin-4-yl)amino)thiazole-5-carboxamide]
cytotoxicity in the presence of TNF (10 ng/mL) compared to inhibitor alone [10]: increased cytotoxicity

Cc1nc(Nc2ncc(C(=O)Nc3c(Cl)ccnc3C)s2)cc(N2CCN(CCO)CC2)n1 [Compound B3, N-(4-chloro-2-methylpyridin-3-yl)-2-((6-(4-(2-hydroxyethyl)piperazin-1-yl)-2-methylpyrimidin-4-yl)amino)thiazole-5-carboxamide]
solubility kinetic [5]: 82 µM (≈ 40.1 µg/mL)
solubility kinetic ([5]; kinetic from dmso stock): 82 µM (≈ 40.1 µg/mL)
Intrinsic clearance (L/min/mg) [6]: 24 µL/min/mg
half-life [6]: 58 min
% Remaining at 40 min (%) [6]: 60%
Percentage unbound (%) [8]: 7%
Percentage unbound (%) [9]: 11%
AUC(0-inf) ([11]; iv, 1 mg/kg): 0.45 µM·h
AUC(0-t) ([11]; iv, 1 mg/kg): 0.437 µM·h
Cmax ([11]; iv, 1 mg/kg): 1230 nM
MRT inf ([11]; iv, 1 mg/kg): 17.4 min
MRT last ([11]; iv, 1 mg/kg): 15 min
Tmax ([11]; iv, 1 mg/kg): 4.98 min
Vd ([11]; iv, 1 mg/kg): 1.31 L/kg
clearance ([11]; iv, 1 mg/kg): 75 mL/min/kg
AUC(0-inf) ([11]; po, 30 mg/kg): 0.687 µM·h
AUC(0-t) ([11]; po, 30 mg/kg): 0.589 µM·h
Cmax ([11]; po, 30 mg/kg): 202 nM
Tmax ([11]; po, 30 mg/kg): 30 min
bioavailability ([11]; po, 30 mg/kg): 4%
Papp [12]: 20 ×10⁻⁶ cm/s
Papp [13]: 20 ×10⁻⁶ cm/s

CC(=O)N1CCN(c2cc(Nc3ncc(C(=O)Nc4c(C)csc4Cl)s3)nc(C)n2)CC1 [Compound D8, 2-((6-(4-acetylpiperazin-1-yl)-2-methylpyrimidin-4-yl)amino)-N-(2-chloro-4-methylthiophen-3-yl)thiazole-5-carboxamide]
IC50 [14]: ~150 nM
IC50 [3]: > 200 nM

Cc1nc(Nc2ncc(C(=O)Nc3cccnc3C)s2)cc(N2CCN(CCO)CC2)n1 [Compound C6, 2-((6-(4-(2-hydroxyethyl)piperazin-1-yl)-2-methylpyrimidin-4-yl)amino)-N-(2-methylpyridin-3-yl)thiazole-5-carboxamide]
IC50 [1]: < 1.5 nM

Cc1nc(Nc2ncc(C(=O)Nc3c(C)noc3C)s2)cc(N2CCN(CCO)CC2)n1 [Compound C9]
IC50 [15]: 27.4 nM
IC50 [1]: 6.44 nM
IC50 [16]: 169 nM
IC50 [17]: 232 nM
solubility kinetic [5]: 174 µM (≈ 79.8 µg/mL)
solubility kinetic ([5]; kinetic from dmso stock): 128 to 195 µM (≈ 58.7 to 89.4 µg/mL)
IC50 [14]: 800 nM
Intrinsic clearance (L/min/mg) [6]: < 14 µL/min/mg
% Remaining at 40 min (%) [6]: 89%
Intrinsic clearance (L/min/mg) [7]: < 14 µL/min/mg
% Remaining at 40 min (%) [7]: 83%
Percentage unbound (%) [8]: 6%
Percentage unbound (%) [9]: 44%
half-life [18]: > 100 min
half-life [19]: > 100 min

Cc1nc(Nc2ncc(C(=O)Nc3c(Cl)ccnc3C)s2)cc(N2CCN(C)CC2)n1 [Compound C10]
IC50 [15]: 4.3 nM
IC50 [1]: < 1.5 nM
IC50 [17]: 138 nM
IC50 [14]: 493 nM

Cc1nc(Nc2ncc(C(=O)Nc3c(C)cncc3Cl)s2)cc(N2CCN(CCO)CC2)n1 [Compound C4, N-(3-chloro-5-methylpyridin-4-yl)-2-((6-(4-(2-hydroxyethyl)piperazin-1-yl)-2-methylpyrimidin-4-yl)amino)thiazole-5-carboxamide]
IC50 [1]: < 1.5 nM
solubility kinetic ([5]; kinetic from dmso stock): 128 µM (≈ 62.6 µg/mL)
Intrinsic clearance (L/min/mg) [6]: 115 µL/min/mg
% Remaining at 40 min (%) [6]: 10%
Intrinsic clearance (L/min/mg) [7]: 38 µL/min/mg
% Remaining at 40 min (%) [7]: 45%
Percentage unbound (%) [8]: 2%
Percentage unbound (%) [9]: 14%

CCOc1cccc(Cl)c1NC(=O)c1cnc(Nc2cc(N3CCN(CCO)CC3)nc(C)n2)s1 [Compound B8, N-(2-chloro-6-ethoxyphenyl)-2-((6-(4-(2-hydroxyethyl)piperazin-l-yl)-2-methylpyrimidin-4-yl)amino)thiazole-5-carboxamide]
cytotoxicity in the presence of TNF (10 ng/mL) compared to inhibitor alone [10]: fails to exhibit cytotoxicity

Cc1nc(Nc2ncc(C(=O)Nc3c(Cl)csc3C)s2)cc(N2CCN(CCO)CC2)n1 [Compound D1, N-(4-chloro-2-methylthiophen-3-yl)-2-((6-(4-(2-hydroxyethyl)piperazin-1-y1)-2-methylpyrimidin-4-yl)amino)thiazole-5-carboxamidexs]
concentration at 2 h [2]: 80 nM
concentration at 6 h [2]: 4 nM
concentration at 12 h [2]: 2.14 nM
IC50 [3]: < 200 nM
IC50 [4]: 40 to 45 nM

Cc1nc(Nc2ncc(C(=O)Nc3c(C)cncc3C)s2)cc(N2CCN(CCO)CC2)n1 [Compound C5, N-(3,5-dimethylpyridin-4-yl)-2-((6-(4-(2-hydroxyethyl)piperazin-1-yl)-2-methylpyrimidin-4-yl)amino)thiazole-5-carboxamide]
IC50 [1]: < 1.5 nM

Cc1nc(Nc2ncc(C(=O)Nc3ncccc3C)s2)cc(N2CCN(CCO)CC2)n1 [Compound C2, 2-((6-(4-(2-hydroxyethyl)piperazin-1-yl)-2-methylpyrimidin-4-yl)amino)-N-(3-methylpyridin-2-yl)thiazole-5-carboxamide]
IC50 [15]: 14.4 nM
IC50 [1]: < 1.5 nM
IC50 [16]: 177 nM
IC50 [17]: 427 nM
solubility kinetic [5]: 160 µM (≈ 72.7 µg/mL)
solubility kinetic ([5]; kinetic from dmso stock): 128 to 195 µM (≈ 58.2 to 88.6 µg/mL)
Intrinsic clearance (L/min/mg) [6]: < 17 µL/min/mg
% Remaining at 40 min (%) [6]: 69%
Intrinsic clearance (L/min/mg) [7]: 35 µL/min/mg
% Remaining at 40 min (%) [7]: 48%
Percentage unbound (%) [8]: 9%
Percentage unbound (%) [9]: 30%
half-life [18]: > 86 min
half-life [19]: 40 min

Cc1cn(-c2cc(NC(=O)c3ccc(C)c(Nc4nccc(-c5cccnc5)n4)c3)cc(C(F)(F)F)c2)cn1 [nilotinib]
terminal / elimination half-life [20]: approximately 17 hours

COc1c(F)cccc1NC(=O)c1cnc(Nc2cc(N3CCN(CCO)CC3)nc(C)n2)s1 [Compound B4, N-(3-fluoro-2-methoxyphenyl)-2-((6-(4-(2-hydroxyethyl)piperazin-l-yl)-2-methylpyrimidin-4-yl)amino)thiazole-5-carboxamide]
cytotoxicity in the presence of TNF (10 ng/mL) compared to inhibitor alone [10]: fails to exhibit cytotoxicity

Cc1nc(Nc2ncc(C(=O)Nc3c(C)csc3Cl)s2)cc(N2CCN(C)CC2)n1 [Compound D9, N-(2-chloro-4-methylthiophen-3-yl)-2-((2-methyl-6-(4-methylpiperazin-1-yl)pyrimidin-4-yl)amino)thiazole-5-carboxamide]
concentration at 2 h [2]: 44 nM
concentration at 6 h [2]: 8 nM
concentration at 12 h [2]: 2.71 nM
IC50 [14]: ~60 nM
Inhibition of NFKB activity [21]: +
Inhibition of HDAC4 phosphorylation [22]: +
IC50 [3]: < 100 nM
